Results taken from patent US20050120403A1, “Inhibition of generative propagation in genetically modified herbicide resistant grasses” (Advanta Seeds B. V., priority 2000, published 2005).
Marks after values point to notes of the source that are not given here.

Tests used:
[1] = test system: Arabidopsis and tobacco overexpressing AtH1; conditions: exogenous application; AtH1 overexpression in dicots; cited from earlier work
[2] = test system: Lolium perenne L. (perennial ryegrass) AtH1-expressing transformants; experiment: Relief of delayed heading by gibberellins (spraying, Long Day conditions); type: in vivo; conditions: for Mean Heading Time: transformant (T) plants, 30 mg/L in 5% ethanol + 0.01% Tween-20, sprayed six times over two weeks, days after the first spraying; for effect on heading as compared to non-treated controls: transformant plants, gibberellin 30 mg/L spray
Text: Primary transformants derived from Lolium perenne L. (perennial ryegrass) using pVDH636 were vernalized and then subjected to Long Day (LD) conditions in the greenhouse (17 hr light/7 hr dark). […] AtH1-expressing plants are generally very leafy (FIG. 10).
Four different gibberellin compounds, which differ in their florigenicity (Evans et al., 1990), were used to treat 34 clones per compound and their effect on heading time of transformants and controls was observed. Gibberellin was applied in solvent (5% ethanol supplemented with 0.01% Tween-20 surfactant) at 30 mg/L. It was applied by spraying six times with about 2-3 ml per plant over two weeks, started one week after the beginning of LD conditions. Mean heading time is shown in days after the first spraying. Non-transformant controls were treated with the solvent only.
Transformant (T) and non-transformant (NT) control plants (Table 5) were treated with the indicated gibberellin. […] Variation between transformants for their sensitivity to gibberellins could be great.

Row | Compound | reversal of inhibited flowering phenotype [1] | Mean Heading Time [2] | effect on heading as compared to non-treated controls [2]
1 | C=C1C[C@]23C[C@@]1(O)CC[C@H]2[C@@]12C=C[C@H](O)[C@@](C)(C(=O)O1)[C@H]2[C@@H]3C(=O)O [GA3, gibberellic acid] | can be reversed | 34.1 ^ab days | –
2 | C=C1C[C@]23C[C@@]1(O)CC[C@H]2[C@@]12CC=C[C@@](C)(C(=O)O1)[C@H]2[C@@H]3C(=O)O [GA5] | – | 33.5 ^a days | significantly stimulated heading
3 | 16,17-dihydro-GA5 [diHGA5] | – | 34.2 ^ab days | –
4 | C=C1C[C@]23C[C@@]1(O)CC[C@H]2[C@@]12CCC[C@@](C)(C(=O)O1)[C@H]2[C@@H]3C(=O)O [GA20] | – | 37.8 ^b days | somewhat delayed heading
